Assay results as given in PubChem BioAssay (NCI).
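In this assay, cells in 96-well plates receive the compound at five concentrations for 48 hours. Endpoints are linearly interpolated between the surrounding concentrations. TGI marks complete inhibition of growth.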

Columns and labels:
Assay in all cases: inhibition of tumour cell growth, NCI panel, 48 h
[1] = tested on: RXF 393 renal
[2] = tested on: LOX IMVI melanoma
[3] = tested on: SK-MEL-28 melanoma
[4] = tested on: SN12C renal
[5] = tested on: UACC-257 melanoma
[6] = tested on: MDA-MB-435
[7] = tested on: SK-MEL-5 melanoma
[8] = tested on: NCI-H226 lung
[9] = tested on: SNB-75 CNS
[10] = tested on: NCI/ADR-RES ovarian

SMILES	TGI [1]	TGI [2]	TGI [3]	TGI [4]	TGI [5]	TGI [6]	TGI [7]	TGI [8]	TGI [9]	TGI [10]
CC(=O)Nc1ccc(CNc2cc(=O)[nH]c(=O)[nH]2)cc1	> 100 µM	> 100 µM	> 100 µM	> 100 µM	> 100 µM	> 100 µM	> 100 µM	> 100 µM	> 100 µM	> 100 µM
CN1C(c2ccccc2)=CC(=O)C(O)=C(c2ccccc2)S1(=O)=O	> 100 µM	> 100 µM	> 100 µM	> 100 µM	> 100 µM	> 100 µM	> 100 µM	> 100 µM	> 100 µM	> 100 µM
CC(=O)O[C@H]1C[C@]2(C)C(CCC3O[C@@]32C)[C@@]2(CC(c3ccoc3)OC2O)[C@@H]1C (stereo not given in full)	> 100 µM	> 100 µM	> 100 µM	> 100 µM	> 100 µM	> 100 µM	> 100 µM	> 100 µM	> 100 µM	> 100 µM
O=C(CSc1nc(=O)[nH]c2nc[nH]c12)Nc1ccccc1	> 100 µM	> 100 µM	> 100 µM	> 100 µM	> 100 µM	> 100 µM	> 100 µM	> 100 µM	> 100 µM	> 100 µM
Nc1nc(Cl)cc(NCC2(CO)CCC(Cc3ccccc3)C2)n1 (stereo not given)	> 80.5 µM	37.4 µM	> 100 µM	> 100 µM	> 50.7 µM	33.8 µM	15.6 µM	98.7 µM	> 89.9 µM	> 100 µM
O=C(Oc1ccccc1)c1cc2cc(CCl)ccc2oc1=O	27.9 µM	> 100 µM	> 100 µM	67.4 µM	27.5 µM	> 100 µM	27.5 µM	> 100 µM	57.3 µM	> 100 µM
CC(=O)Nc1ncc(Sc2ccccc2C(=O)O)s1	> 100 µM	> 100 µM	> 100 µM	> 100 µM	> 100 µM	> 100 µM	> 100 µM	> 100 µM	> 100 µM	> 100 µM
CC(NS(C)(=O)=O)c1ccccc1 (stereo not given)	> 100 µM	> 100 µM	> 100 µM	> 100 µM	> 100 µM	> 100 µM	> 100 µM	> 100 µM	> 100 µM	> 100 µM
COC(=O)C(CCC1C=CCC1)N=Cc1ccccc1 (stereo not given)	> 100 µM	> 100 µM	> 100 µM	> 100 µM	> 100 µM	> 100 µM	> 100 µM	> 100 µM	> 100 µM	> 100 µM
NC1C/C(=N\O)c2c(I)sc(I)c21 (stereo not given)	35.8 µM	15.6 µM	32.5 µM	> 56.6 µM	31.8 µM	27.2 µM	28.4 µM	34.1 µM	33.4 µM	43.1 µM
CC(=O)Oc1ccc2c(c1)c1c(=O)oc(N(C)C)nc1n2Cc1ccccc1	> 100 µM	> 100 µM	> 100 µM	> 100 µM	> 100 µM	> 100 µM	> 100 µM	> 100 µM	> 100 µM	> 100 µM
CCOP(=O)(/C=C\n1cnc2c(=O)n(C(C)=O)c(N)nc21)OCC	> 100 µM	> 100 µM	> 100 µM	> 100 µM	> 100 µM	> 100 µM	> 100 µM	> 100 µM	> 100 µM	> 100 µM
Cc1cc2[nH]c3c(C#N)c(-c4ccccc4)c(N=Nc4cccc(C(F)(F)F)c4)c(=O)n3c2cc1C	> 100 µM	> 100 µM	> 100 µM	> 100 µM	> 100 µM	> 100 µM	51.8 µM	> 100 µM	> 100 µM	> 100 µM
NC1CC(=O)c2csc(Br)c21 (stereo not given)	36 µM	29 µM	37.9 µM	> 44.3 µM	34.8 µM	32.9 µM	> 59.2 µM	69.2 µM	> 79.5 µM	44.4 µM
COc1cc(OC)c2c(c1OC)OCC(Cc1ccc(O)cc1)C2=O (stereo not given)	> 25 µM	> 25 µM	> 25 µM	> 25 µM	> 25 µM	> 25 µM	> 25 µM	> 25 µM	> 25 µM	> 25 µM
O=C1OC(c2ccc(O)c(Cl)c2)(c2ccc(O)c(Cl)c2)c2ccc(Br)c3cccc1c23 (tested in a mixture with another compound)	32.5 µM	40.3 µM	36 µM	32 µM	34.8 µM	34.3 µM	31.3 µM	41.1 µM	37.8 µM	32.5 µM
CCCN1C(=O)CCC2=C1CCc1c2ccc(Cl)c1Cl	50.5 µM	> 100 µM	> 100 µM	> 100 µM	> 100 µM	> 100 µM	60.4 µM	> 100 µM	33.9 µM	> 100 µM
O=C(CN1CCN(C(=O)OCc2ccccc2)CCN(CC(=O)N2CCCCC2)CCN(C(=O)OCc2ccccc2)CC1)N1CCCCC1	39.1 µM	28.1 µM	27.9 µM	26.8 µM	9.75 µM	31.2 µM	19.2 µM	36.6 µM	16.5 µM	32.5 µM
COc1cccc2cc(C(N)=O)c(=N)oc12	> 100 µM	> 100 µM	> 100 µM	> 100 µM	> 100 µM	> 100 µM	> 100 µM	> 100 µM	> 100 µM	> 100 µM
CC1(c2ccc(Cl)cc2)CC(c2ccc(Cl)cc2)=C(C#N)C(=C(C#N)C#N)N1 (stereo not given)	32.1 µM	33.6 µM	> 100 µM	37.2 µM	37.1 µM	34.7 µM	27.2 µM	75.8 µM	34.7 µM	46.5 µM
COc1ccc2c3c1OC1C(=O)C=CC4(O)C(C2)NCC[C@@]314 (stereo not given in full)	3.74 µM	5.15 µM	22.7 µM	4.42 µM	5.3 µM	5.79 µM	16.4 µM	25.7 µM	4.32 µM	20.3 µM
CCSC1=N/C(=C\c2ccccc2O)C(Nc2ccc(C)cc2)=N1	> 100 µM	> 100 µM	> 100 µM	> 100 µM	> 100 µM	> 100 µM	> 100 µM	> 100 µM	> 100 µM	> 100 µM
OCCN(CCO)c1ccc2c(C(F)(F)F)cc(C(F)(F)F)nc2n1	> 100 µM	> 100 µM	> 100 µM	> 100 µM	> 100 µM	> 100 µM	> 100 µM	> 100 µM	> 100 µM	> 100 µM
O=C1CCCc2c1c1c(n2Cc2ccccc2)-c2ccccc2C1=O	> 100 µM	39.5 µM	55.1 µM	45.5 µM	32.1 µM	38.2 µM	40.7 µM	66.1 µM	> 100 µM	50.1 µM
CC(C)C(C/C=C1/CC(CO)(COC(=O)CC(C(C)C)C(C)C)OC1=O)C(C)C (stereo not given)	26 µM	20.8 µM	27.7 µM	31.9 µM	30.3 µM	16.9 µM	22.3 µM	22.6 µM	18.8 µM	31.6 µM
CN1CCC2(CC1)C(=O)N(N1CCCCCC1)C(=O)N2c1ccccc1	> 100 µM	> 100 µM	> 100 µM	> 100 µM	> 100 µM	> 100 µM	> 100 µM	> 100 µM	> 100 µM	> 100 µM
c1ccc(N=C2SC(=NNc3ccccc3)SC2=Nc2ccccc2)cc1	> 100 µM	> 100 µM	> 100 µM	> 100 µM	> 100 µM	> 100 µM	> 100 µM	> 100 µM	> 100 µM	> 100 µM
O=C(Cn1nc(Br)c(Br)c1Br)c1ccccc1	36.4 µM	32.2 µM	> 100 µM	> 100 µM	63.5 µM	> 100 µM	34.5 µM	63.5 µM	63.8 µM	93.1 µM
